Measured values reported in paper PMC6213047, “Design of Antibacterial Agents: Alkyl Dihydroxybenzoates against Xanthomonas citri subsp. citri” (International Journal of Molecular Sciences, 2018).
“Also recorded” adds a separate entry of the source. Like-named read-outs stand apart in the source and are kept apart here.

How the values were obtained:
[1] = tested on: HaCaT (human keratinocyte cell line); test: Cytotoxicity MTT assay, HaCaT; format: cell-based
Procedure: (§1) This test is based on the reduction of 3-(4,5-dimethyl-2-thiazolyl)-2,5-diphenyl-2-tetrazole bromide by viable cells, with formation of violet insoluble formazan crystals. Five cell lines were used in order to evaluate the cytotoxic effect of the compounds as a whole.
(§2) The cytotoxicity of compounds 4, 16, 28 and copper oxychloride was determined by MTT assay. The cell lines used were HaCaT (human keratinocyte cell line—CLS 300493), Huh-7.5 (human hepatoma cell line—ATCC® PTA-8561), MRC-5 (human lung fibroblast cell line—ATCC CCL-171), VERO (monkey kidney epithelial cell line—ATCC® CCL81) and ACHN (human renal adenocarcinoma cell line—ATCC® CRL1611). The cells were cultured in appropriate medium recommended by the American Type Culture Collection.
(§3) The assay was performed with the concentration of 10^4 cells for both cell lines, distributed in 96-well plates and incubated at 37 °C in a 5% CO2 controlled atmosphere oven for 24 h. After the incubation period, the cells were treated with the compounds with a range of 1.56–200 μmol L^−1 and incubated for 24 h. The supernatant was removed, then 100 μL of 3-(4,5-dimethyl-2-thiazolyl)-2,5-diphenyl-2H-tetrazolium (MTT) salt at 1 mg mL^−1 diluted in DMEM medium (Gibco Life Technologies, Gaithersburg, MD, USA) was added and incubated for 30 min. Subsequently, the MTT was removed, then 100 μL of DMSO under agitation for 5 min at 60 rpm was added. The plates were read at 570 nm in a FLUOstar Omega/BMG LABTECH plate reader, Offenburg, BW, DE. We carried out the experiments in triplicate and three independent events for statistical analysis (GraphPad Software, San Diego, CA, USA). The MTT assay is based on the tetrazolium salt (yellow-colored) reduction to formazan (purple-colored) by metabolically active cells.

[2] = tested on: Xanthomonas citri subsp. citri; test: Growth curve of Xcc (OD 600 nm); format: cell-based; details: MIC and ½ MIC, 72 h
Procedure: According to the growth curves of the positive control (PC) and vehicle control (DMSO), it was observed that Xcc reaches the maximum growth phase in a period of 15 h. […] The early growth inhibition (lag phase), which happens in the first hours of contact (period of the first cellular divisions) can be a dynamic process. […] This can be explained because the compounds have bacteriostatic action; that is, as the time passes, the cells become able to recover and restart doubling. Another important finding is that the lag phase consists in the cell adaptation to the new medium conditions and the bacterial population is smaller in relation to the exponential phase facilitates the action of the compounds in the first hours (Figure 1).
An isolated colony of Xanthomonas citri subsp. citri was inoculated in NYG medium for 12 h at 29 °C. After this, the optical density (OD 600 nm) was measured and adjusted to ~0.1. […] Optical density reading was measured on a Synergy H1-BioTek plate reader every 30 min for 72 h. The growth curves were plotted with GraphPad Prism software. At the same time, the degradation assay was performed, solubilizing the compounds in DMSO, which were later incorporated in NYG medium. Later, we scanned the compounds to measure the absorbance values from 210 to 700 nm, and the maximum lambda value of each compound was selected after scanning. After that, punctual readings were carried out every 30 min for 72 h.

[3] = tested on: ACHN (human renal adenocarcinoma cell line); test: Cytotoxicity MTT assay, ACHN; format: cell-based
Procedure: as §1, §2, §3

FtsZ from Xcc = test: Inhibition of GTPase activity, continuous substrate regeneration assay; format: biochemical, Xanthomonas citri subsp. citri; details: compounds at MIC values, Xcc-FtsZ 5 μM, 400 μM GTP
Procedure: The cell division process is mediated by the formation of the Z ring, coordinated by GTP hydrolysis activity of FtsZ [33, 34, 35].
The evaluation of the inhibition of GTPase activity was measured by the characterization of the FtsZ from Xcc. This methodology is known as continuous assay of substrate regeneration and consists of the hydrolysis of guanosine triphosphate (GTP) in guanosine diphosphate (GDP) and inorganic phosphate. The GTP is regenerated by the enzyme pyruvate kinase which, in turn, converts the phosphoenol pyruvate (PEP) to pyruvate. The pyruvate produced by this reaction is reduced to lactate by lactate dehydrogenase, using NADH [64].
Reagent stocks were dispersed in Tris 50 buffer (1:1 tris:KCl at pH 7.9). We also prepared two mixtures: Mixture 1—magnesium chloride (MgCl2), pyruvate kinase/lactate dehydrogenase, phosphoenol-pyruvate, NADH and GTP, adding or not the test compounds to MIC values; and mixture 2—Xcc-FtsZ. The assay was performed in a 96-well plate, 75 μL of mixture 1 was pipetted into a well and incubated for 5 min at 30 °C; then 75 μL of mixture 2 was added and the readings started. A Biotek Synergy MX plate reader was used. The readings were performed every 5 s, at the wavelength of 340 nm at 30 °C, under constant stirring.
The total volume of 150 μL presented the following concentrations: 5 mM MgCl2; pyruvate kinase/lactate dehydrogenase 20 U mL^−1; 2 mM phosphoenol-pyruvate; 1 mM NADH; 400 μM GTP; Xcc-FtsZ 5 μM.

[4] = tested on: Huh-7.5 (human hepatoma cell line); test: Cytotoxicity MTT assay, Huh-7.5; format: cell-based
Procedure: as §1, §2, §3

[5] = Partition coefficient log Po/w by HPLC (OECD 117); format: physicochemical; details: HPLC method, OECD 117, methanol:water 3:1
Procedure: The analyses were performed with the use of an isocratic flow in methanol: water (3:1) at 1.0 mL min^−1. We injected 20.0 μL and analyses were performed at 254 nm. We used as reference compounds thiourea, phenol, acetophenone, benzoic acid, benzene, toluene, biphenyl, fluoranthene and triphenylamine in order to construct the curve log K × log Po/w. The lipophilicity of alkyl dihydroxybenzoates was determined from their retention times and interpolation in linearity curve log K × log Po/w. We performed the analyses in duplicate.

[6] = tested on: VERO (monkey kidney epithelial cell line); test: Cytotoxicity MTT assay, VERO; format: cell-based
Procedure: as §1, §2, §3

[7] = Homo sapiens, HaCaT, 24 h, read-out: IC50 HaCaT, MTT, 24 h treatment
[8] = MTT, 24 h treatment, read-out: IC50 HaCaT
[9] = Homo sapiens, ACHN, 24 h, read-out: IC50 ACHN, MTT, 24 h treatment
[10] = MTT, 24 h treatment, read-out: IC50 ACHN
[11] = Primates, Vero, 24 h, MTT, 24 h treatment, read-out: IC50 VERO
[12] = Homo sapiens, Huh7.5, 24 h, read-out: IC50 Huh-7,5, MTT, 24 h treatment
[13] = MTT, 24 h treatment, read-out: IC50 Huh-7,5

SMILES | IC50 [1, 7] | IC50 [1, 8] | effect on Xcc growth curve [2] | IC50 [3, 9] | IC50 [3, 10] | effect on GTPase activity of FtsZ (FtsZ from Xcc) | IC50 ([4]; Homo sapiens, Huh7.5, 24 h, MTT, 24 h treatment, read-out: IC50 Huh-7,5) | chromatographic logP [5] | IC50 [6, 11] | IC50 [4, 12] | IC50 [4, 13] | IC50 ([6]; MTT, 24 h treatment, read-out: IC50 VERO) | IC50 ([6]; Primates, Vero, 24 h, read-out: IC50 VERO, MTT, 24 h treatment)
CCCCCCCOC(=O)c1cc(O)ccc1O [Compound 16] | ~70 µM | 69.8 ± 4.87 µM | delay in the exponential phase | > 100 µM | 140 ± 7.56 µM | inhibition of FtsZ GTPase activity; also recorded: decay in the GTPase activity of FtsZ | 20.6 ± 0.23 µM | 5 | 93.5 ± 1.93 µM |  |  |  | 
CCCCCCCOC(=O)c1ccc(O)c(O)c1 [Compound 28] | ~70 µM | 74 ± 11.7 µM | delay in the exponential phase | > 100 µM | 114 ± 9.97 µM | inhibition of FtsZ GTPase activity; also recorded: decay in the GTPase activity of FtsZ |  | 4.3 | 92.3 ± 9.34 µM | ~70 µM | 64.8 ± 14.9 µM |  | 
CCCCCCCOC(=O)c1ccc(O)cc1O [Compound 4] | ~70 µM | 64.9 ± 8.91 µM | delay in the exponential phase | > 100 µM | 153 ± 7.07 µM | inhibition of FtsZ GTPase activity; also recorded: decay in the GTPase activity of FtsZ |  | 5.1 |  | ~70 µM | 70.6 ± 5.52 µM | 111 ± 8.34 µM | > 100 µM
